{"source": "patent US6423307B1", "about": "“Bioadhesive complexes of polycarbophil and azole antifungal or antiprotozoal drugs” (Farmigea S.p.A., priority 1996, dated 2002)", "key": {"C. albicans ATCC 23866": {"tested_on": "C. albicans ATCC 23866", "assay": "Susceptibility test in microplate (liquid medium), MIC", "type": "cell-based, Candida albicans", "details": "48 h at 37° C.", "procedure": "(§1) Two standard American Type Culture Collection (ATCC) strains were used for the assays, i.e. those deposited under the numbers ATCC 48867 and ATCC 23866. Econazole (base) and the econazole-polycarbophil complex were prepared by using different concentrations of the active ingredient depending on the assay requirements, as well as different solvents (i.e. propylene glycol, DMSO), with or without a thickening excipient substance (i.e. hydroxypropylcellulose). The activity of each solvent was also tested, as well as the activity of the excipient and that of polycarbophil alone.\n(§2) Stock solutions of econazole (base) and of the econazole-polycarbophil complex were obtained by dissolving the compounds in DMSO at a concentration of 1.5 mg/ml. Two serial 10-fold dilutions in DMSO were made starting from the stock solutions, up to a concentration of 15 μg/ml. From this concentration each compound was subsequently diluted in Yeast Nitrogen Base medium, to which 0.5% glucose and 0.05% bovine albumin had been added. The mixtures were then placed, at different concentrations, in microplate wells (90 μl volume each). 10 μl of a suspension of C. albicans obtained by diluting by {fraction (1/10+L )} a preparation having a turbidity of 2 McFarland were then inoculated in each well. […]"}, "C. albicans ATCC 48867 [1]": {"tested_on": "C. albicans ATCC 48867", "assay": "Susceptibility test in microplate (liquid medium), MIC", "type": "cell-based, Candida albicans", "details": "48 h at 37° C.", "procedure": "as §1, §2"}, "C. albicans ATCC 48867 [2]": {"tested_on": "C. albicans ATCC 48867", "assay": "Antifungal assay in solid medium (inhibition halo)", "type": "cell-based, Candida albicans", "procedure": "as §1\nThe antifungal activity has been evaluated in an assay in solid medium using Petri dishes containing Sabouraud medium with 2% agar. The dishes were uniformly seeded, with the aid of a sterile pad, with an aqueous suspension containing C. albicans at a density of 2 McFarland. By means of an instrument of 6 mm diameter, incisions were made on the dishes in order to obtain regular cavities in the agar thickness. Each one of the substances under test was placed in one of these cavities, in amounts ranging from 50 to 100 μl. The plates were then incubated for 24 h in a thermostat at 37° C. The antifungal activity was evaluated by measuring the diameter of the inhibition of C. albicans growth around each cavity.\nThe antifungal assay in solid medium turned out to be a highly sensitive and reproducible assay also for the products under test. At least five separate experiments for evaluating the inhibition halos were carried our for each one of the two different strains and for each one of the compounds examined. Similar results were obtained with each compound in all of the experiments performed."}, "[3]": {"tested_on": "Candida albicans, strain ATCC 48867", "assay": "Experimental intravaginal infection by Candida albicans in a murine model", "type": "in vivo, CBA/J (H-2^k) mice", "details": "for Not improved (% of mice): above 990 colonies; for Not improved (number of mice): vaginal wash 4 hours after dosing, above 990 colonies in 50 μl PBS; for Improved (% of mice) / Improved (number of mice): 100 to 990 colonies in 50 μl PBS; for Cured (number of mice): all cultures negative; for Sensibly improved (% of mice) / Sensibly improved (number of mice): less than 100 colonies in 50 μl PBS", "excerpt": "In the frame of the microbiological experimentation of the products of the invention, the in vivo pharmacological activity of the econazole-polycarbophil complex has also been tested, in comparison with that of econazole (base), in the treatment of an experimental intravaginal infection by Candida albicans, reproduced in a murine model.\nVaginal candidiasis in rodents may be induced only in pseudoestrus conditions (P. L. Fidel, M. E. Lynch, J. D. Sobel, Infection and Immunity, 61 (5), 1993, 1990). For this reason, 72 hours before vaginal inoculation, the CBA/J (H-2^k) mice, described as sensible to such infection (P. L. Fidel, J. L. Cutright, J. D. Sobel, Infection and Immunity, 63 (10), 1995, 4191) were treated with 0.5 mg of estradiol valerate, dissolved in sesame oil, administered by subcutaneous route. The estrogen administration was repeated weekly until completion of the study. Blastoconoids (5×10^5) of Candida albicans, strain ATCC 48867, were inoculated in the vagina of mice previously treated with estrogens. After one week from the inoculation, the infection degree was evaluated by means of vaginal washing and subsequent count of the colony-forming units (CFU) on plates of Sabouraud agar, to which chloramphenicol and gentamicin had been added.\nThe infected animals were divided into three test groups, each one of which underwent a therapeutic treatment for five subsequent days (from day 1 to day 5). Each therapeutic treatment respectively consisted of: 1) econazole (base) (0.5 wt. % and 1 wt. %); 2) econazole-polycarbophil complex (0.5 wt. % and 1 wt. % calculated as econazole); 3) excipients (control group).\nThe infection degree was checked before starting the treatment and at the end thereof (day 6). […] The statistical evaluation of the results was made by means of the χ^2 test."}, "[4]": {"details": "0.5 wt. % econazole, 5 days, checked day 6"}}, "data": [{"smiles": "Clc1ccc(COC(Cn2ccnc2)c2ccc(Cl)cc2Cl)cc1", "note": "(stereo not shown) [econazole (base), 1-{2-[(4-chlorophenyl)methoxy]-2-(2,4-dichlorophenyl)ethyl}-1H-imidazole]", "values": [{"measurement": "Minimal inhibitory concentration", "setting": "C. albicans ATCC 23866", "value": "5.6 ± 0.4 μg/ml of econazole"}, {"measurement": "Minimal inhibitory concentration", "setting": "C. albicans ATCC 48867 [1]", "value": "5.6 ± 0.3 μg/ml of econazole"}, {"measurement": "Diameter of inhibition halo", "setting": "C. albicans ATCC 48867 [2]; Concentration 3 × 10^−2 %, preparation with HPC", "value": "31.2 ± 0.84", "unit": "mm"}, {"measurement": "Diameter of inhibition halo", "setting": "C. albicans ATCC 48867 [2]; Concentration 3 × 10^−2 %, preparation without HPC", "value": "31.2 ± 0.84", "unit": "mm"}, {"measurement": "Diameter of inhibition halo", "setting": "C. albicans ATCC 48867 [2]; Concentration 3 × 10^−3 %, preparation with HPC", "value": "29.4 ± 0.89", "unit": "mm"}, {"measurement": "Diameter of inhibition halo", "setting": "C. albicans ATCC 48867 [2]; Concentration 3 × 10^−3 %, preparation without HPC", "value": "28.6 ± 0.55", "unit": "mm"}, {"measurement": "Diameter of inhibition halo", "setting": "C. albicans ATCC 48867 [2]; Concentration 3 × 10^−4 %, preparation with HPC", "value": "20.8 ± 1.30", "unit": "mm"}, {"measurement": "Diameter of inhibition halo", "setting": "C. albicans ATCC 48867 [2]; Concentration 3 × 10^−4 %, preparation without HPC", "value": "20.2 ± 1.09", "unit": "mm"}, {"measurement": "Diameter of inhibition halo", "setting": "C. albicans ATCC 48867 [2]; Concentration 3 × 10^−5 %, preparation with HPC", "value": "13.0 ± 1.00", "unit": "mm"}, {"measurement": "Diameter of inhibition halo", "setting": "C. albicans ATCC 48867 [2]; Concentration 3 × 10^−5 %, preparation without HPC", "value": "12.4 ± 0.58", "unit": "mm"}, {"measurement": "Not improved (% of mice)", "setting": "[3]; [4]", "value": 11.11, "unit": "%"}, {"measurement": "Not improved (number of mice)", "setting": "[3]; [4]", "value": 1}, {"measurement": "Improved (% of mice)", "setting": "[3]; 0.5 wt. % econazole", "value": 66.66, "unit": "%"}, {"measurement": "Improved (number of mice)", "setting": "[3]; 0.5 wt. % econazole", "value": 6}, {"measurement": "Cured (number of mice)", "setting": "[3]; 0.5 wt. % econazole", "value": 0}, {"measurement": "Sensibly improved (% of mice)", "setting": "[3]; 0.5 wt. % econazole", "value": 22.22, "unit": "%"}, {"measurement": "Sensibly improved (number of mice)", "setting": "[3]; 0.5 wt. % econazole", "value": 2}, {"measurement": "Not improved (number of mice)", "setting": "[3]; 1 wt. % econazole, 5 days, checked day 6", "value": 3}, {"measurement": "Improved (% of mice)", "setting": "[3]; 1 wt. % econazole", "value": 56.25, "unit": "%"}, {"measurement": "Improved (number of mice)", "setting": "[3]; 1 wt. % econazole", "value": 9}, {"measurement": "Not improved (% of mice)", "setting": "[3]; 1 wt. % econazole", "value": 18.75, "unit": "%"}, {"measurement": "Cured (number of mice)", "setting": "[3]; 1 wt. % econazole", "value": 0}, {"measurement": "Sensibly improved (% of mice)", "setting": "[3]; 1 wt. % econazole", "value": 25.00, "unit": "%"}, {"measurement": "Sensibly improved (number of mice)", "setting": "[3]; 1 wt. % econazole", "value": 4}, {"measurement": "cured animals added to sensibly cured animals (% of mice)", "setting": "[3]; 1 wt. % econazole, p=0.0131 between groups", "value": 25, "unit": "%"}]}]}
